Source: article PMC8958505, “Discovery of Potential Neuroprotective Agents against Paclitaxel-Induced Peripheral Neuropathy” (Journal of Medicinal Chemistry, 2022)
Counter-ions that a name gives are not always drawn. Like-named read-outs stand apart in the source and are kept apart here.

Legend:
[1] = tested on: mouse primary DRG neurons; experiment: Neurite outgrowth assay of DRG neurons (image-based HCS) against paclitaxel-induced neurotoxicity; format: cell-based; conditions: for activation at 1 µM: Mus musculus, DRG neuron; for protective efficacy against paclitaxel-induced neurotoxicity (in words): pretreated, + 50 nM paclitaxel
Experimental: All these 19 compounds were then subjected to the neurite outgrowth assay of dorsal root ganglion (DRG) neurons paired with an image-based HCS to analyze whether they had neuroprotective potential. Quantification of neurite outgrowth under different regimens is shown in Figure 3, wherein DRG neurons incubated in 50 nM paclitaxel could cause 60% reduction in neurite outgrowth compared to the control (no drug treatment). […] Taken together, CN016 is selected as a promising lead for further development.
(§1) Primary cortical or DRG cells were fixed with 4% paraformaldehyde for 15 min following compound and paclitaxel treatment. After washing with PBS, the fixed cells were permeabilized with PBS containing 0.05% Triton X-100 for 20 min and then blocked with commercial blocking buffer (#GTX30963; GeneTex, USA) at room temperature for 1 h. Subsequently, the cortical cells were stained for the extending processes and synaptic puncta by using anti-MAP2 (#MBS502140, 1:500; Mybiosource, USA) and anti-synaptophysin (#ab32127, 1:500; Abcam, UK) overnight. DRG cells were stained for the neurite and neuron nucleus by using anti-β III tubulin (#D71G9, 1:600; Cell Signaling, USA) and anti-NeuN monoclonal antibody (#MAB377, 1:400; Millipore, USA) overnight. On the second day, the samples were washed for 30 min with wash buffer and incubated with secondary antibodies (Alexa-488, 647 1:600; Thermo Fisher, USA) and 4 μg/mL Hoechst 33258 (#94403-1ML, 1:100; Merck, USA) at room temperature for 1 h. In the initial experiments of screening the potential neuroprotective compound for CIPN, ImageXpress^Micro (IXM) high-content imaging system (Molecular Devices, USA) driven by MetaXpress software was used. Images of treated cells were automatically acquired by using a 10× objective. Twenty-one images per well were taken in each of three channels (DAPI, FITC, and Cy5) to create a whole view of the entire neural network. The integrity of the neural network was evaluated using TIF images by importing them into MetaXpress software for analysis using the module for multiparameter, such as Neurite Outgrowth, Cell Scoring, and Transfluor. Furthermore, the score of synaptogenesis was analyzed in AcuityXpress software (Molecular Devices, USA).

[2] = tested on: primary cortical neurons; experiment: Synaptogenesis assay of primary cortical neurons (image-based HCS) against paclitaxel-induced neurotoxicity; format: cell-based, mouse; conditions: Mus musculus, Primary cortical neuron; for activity at 0.01 µM: read-out: A: Synaptogenesis (% of control) of test compound (10 nM) + paclitaxel (1 μM); for activity at 1 µM: read-out: B: Synaptogenesis (% of control) of test compound (1000 nM) + paclitaxel (1 μM)
Source text: (§2) Herein, we wish to report that an in vitro neurite outgrowth assay of cortical neurons integrated with an image-based high-content screening (HCS) platform is used to evaluate a commercially available library of 78 minoxidil-related derivatives,[22] leading to the identification of a series of analogues able to prevent or alleviate paclitaxel-induced neurotoxicity. The project began with screening compounds with the primary culture of cortical neurons from neonatal mice. More specifically, cerebral cortex neurons cultured from P0 C57BL/6J mouse pups were incubated with a test compound (10 and 1000 nM) prior to paclitaxel (1 μM) treatment. Subsequently, both neurite outgrowth and synaptogenesis were measured to evaluate the test compounds’ neuroprotective capacity. […] This unique feature is preserved for the core-structure screening of our in-house library in the following subject. Moreover, the substituent at the C4 position appears flexible in terms of structural diversity. Collectively, CSV0A024807, the only one displaying the best neuroprotective potency on both neurite outgrowth and synaptogenesis assays, was thus elected as a potential hit compound for further development.
as §1

[3] = tested on: primary cortical neurons; experiment: Neurite outgrowth assay of primary cortical neurons (image-based HCS) against paclitaxel-induced neurotoxicity; format: cell-based, mouse; conditions: Mus musculus, Primary cortical neuron; for activity at 0.01 µM: read-out: C: Neurite outgrowth (% of control) of test compound (10 nM) + paclitaxel (1 μM); for activity at 1 µM: read-out: D: Neurite outgrowth (% of control) of test compound (1000 nM) + paclitaxel (1 μM)
Source text: as §2, §1

[4] = Table S2, test compound 1000 nM + paclitaxel 50 nM minus paclitaxel 50 nM, read-out: Neuroprotection rate = (A-B) ± S.E.M [%]
[5] = supplementary CSV, test compound 1000 nM, read-out: A-B (A: neurite outgrowth (% of control) of test compound (1000 nM) + paclitaxel (50 nM), B: of paclitaxel (50 nM))
[6] = Table 1, A: neurite outgrowth (% of control) of test compound 1000 nM + paclitaxel 50 nM, B: paclitaxel 50 nM alone, DRG neurons, read-out: Neuroprotection rate = (A-B)±S.E.M [%]
[7] = test compound 10 nM + paclitaxel 1 μM, mean ± SE
[8] = test compound 1000 nM + paclitaxel 1 μM, mean ± SE

NCCCn1cc(CNc2nc(NC3CCN(C(=O)CCNC(=O)C4(O)CC(O)C(O)C(O)C4)CC3)cc(N3CCOCC3)n2)nn1 (stereo not drawn) [CN006, 1,3,4,5-Tetrahydroxy-cyclohexanecarboxylic Acid {3-[4-(2-{[1-(3-Amino-propyl)-1H-[1,2,3]triazol-4-ylmethyl]-amino}-6-morpholin-4-yl-pyrimidin-4-ylamino)-piperidin-1-yl]-3-oxo-propyl}-amide Hydrochloride Salt]
activation at 1 µM [1, 4]: 4 ± 1.44% | activation at 1 µM [1, 5]: 4%

CCOP(=O)(CCN1CCC(Nc2cc(N3CCOCC3)nc(NCc3cn(CCCO)nn3)n2)CC1)OCC [CN012, {2-[4-(2-{[1-(3-Hydroxy-propyl)-1H-[1,2,3]triazol-4-ylmethyl]-amino}-6-morpholin-4-yl-pyrimidin-4-ylamino)-piperidin-1-yl]-ethyl}-phosphonic Acid Diethyl Ester]
activation at 1 µM [1, 6]: 12 ± 1% | activation at 1 µM [1, 4]: 9 ± 1% | activation at 1 µM [1, 5]: 9% | protective efficacy against paclitaxel-induced neurotoxicity (in words) ([1]; DRG neurons): exhibited protective efficacy

CSCCCn1cc(CNc2nc(NC3CCN(Cc4ccccc4)CC3)cc(N3CCOCC3)n2)nn1 [CN003, N4-(1-Benzyl-piperidin-4-yl)-N2-[1-(3-methylsulfanyl-propyl)-1H-[1,2,3]triazol-4-ylmethyl]-6-morpholin-4-yl-pyrimidine-2,4-diamine]
activation at 1 µM [1, 4]: 1 ± 2.6% | activation at 1 µM [1, 5]: 1%

CC(O)Cn1cc(CNc2nc(NC3CCN(CCP(=O)(O)O)CC3)cc(N3CCOCC3)n2)nn1 (stereo not drawn) [CN025, {2-[4-(2-{[1-(2-Hydroxy-propyl)-1H-[1,2,3]triazol-4-ylmethyl]-amino}-6-morpholin-4-yl-pyrimidin-4-ylamino)-piperidin-1-yl]-ethyl}-phosphonic Acid Hydrobromide Salt]
activation at 1 µM [1, 6]: 4 ± 0.63% | activation at 1 µM [1, 5]: 4%

O=P(O)(O)CCN1CCC(Nc2cc(N3CCOCC3)nc(NCc3ccc(CCO)cc3)n2)CC1 [CN019]
activation at 1 µM [1, 4]: -2 ± 1.2% | activation at 1 µM [1, 5]: -2% | protective efficacy against paclitaxel-induced neurotoxicity (in words) ([1]; DRG neurons): inactive

CC(C)(O)CCn1cc(CNc2nc(NC3CCN(CCP(=O)(O)O)CC3)cc(N3CCOCC3)n2)nn1 [CN027, {2-[4-(2-{[1-(3-Hydroxy-3-methyl-butyl)-1H-[1,2,3]triazol-4-ylmethyl]-amino}-6-morpholin-4-yl-pyrimidin-4-ylamino)-piperidin-1-yl]-ethyl}-phosphonic Acid Hydrobromide Salt]
activation at 1 µM [1, 6]: 5 ± 0.93% | activation at 1 µM [1, 5]: 5%

COC(=O)CCOCCCn1cc(CNc2nc(NC3CCN(Cc4ccc5ccccc5c4)CC3)cc(N3CCOCC3)n2)nn1 [CN005, 3-[3-(4-{[4-Morpholin-4-yl-6-(1-naphthalen-2-ylmethyl-piperidin-4-ylamino)-pyrimidin-2-ylamino]-methyl}-[1,2,3]triazol-1-yl)-propoxy]-propionic Acid Methyl Ester]
activation at 1 µM [1, 4]: -3 ± 0.41% | activation at 1 µM [1, 5]: -3%

O=P(O)(O)CCN1CCC(Nc2cc(N3CCSCC3)nc(NCc3cn(CCCO)nn3)n2)CC1 [CN023, {2-[4-(2-{[1-(3-Hydroxy-propyl)-1H-[1,2,3]triazol-4-ylmethyl]-amino}-6-thiomorpholin-4-yl-pyrimidin-4-ylamino)-piperidin-1-yl]-ethyl}-phosphonic Acid Hydrobromide Salt]
activation at 1 µM [1, 6]: 4 ± 1.43% | activation at 1 µM [1, 5]: 4%

CCOP(=O)(CCN1CCC(Nc2cc(N3CCOCC3)nc(NCc3cn(CCC(C)(C)O)nn3)n2)CC1)OCC [CN013, {2-[4-(2-{[1-(3-Hydroxy-3-methyl-butyl)-1H-[1,2,3]triazol-4-ylmethyl]-amino}-6-morpholin-4-yl-pyrimidin-4-ylamino)-piperidin-1-yl]-ethyl}-phosphonic Acid Diethyl Ester]
activation at 1 µM [1, 4]: 6 ± 1.17% | activation at 1 µM [1, 5]: 6%

OCCCn1cc(CNc2nc(NC3CCN(Cc4ccccc4)CC3)cc(N3CCOCC3)n2)nn1 [CN004, 3-(4-{[4-(1-Benzyl-piperidin-4-ylamino)-6-morpholin-4-yl-pyrimidin-2-ylamino]-methyl}-[1,2,3]triazol-1-yl)-propan-1-ol]
activation at 1 µM [1, 6]: -1 ± 3.2% | activation at 1 µM [1, 4]: 1 ± 3.2% | activation at 1 µM [1, 5]: 1%

COCCCn1cc(CNc2nc(NC3CCN(CCP(=O)(O)O)CC3)cc(N3CCOCC3)n2)nn1 [CN028, {2-[4-(2-{[1-(3-Methoxy-propyl)-1H-[1,2,3]triazol-4-ylmethyl]-amino}-6-morpholin-4-yl-pyrimidin-4-ylamino)-piperidin-1-yl]-ethyl}-phosphonic Acid Hydrobromide Salt]
activation at 1 µM [1, 6]: -2% | activation at 1 µM [1, 5]: -2%

COC(=O)CCOCCCn1cc(CNc2nc(NC3CCN(CCC(=O)OC)CC3)cc(N3CCOCC3)n2)nn1 [CN011, 3-{3-[4-({4-[1-(2-Methoxycarbonyl-ethyl)-piperidin-4-ylamino]-6-morpholin-4-yl-pyrimidin-2-ylamino}-methyl)-[1,2,3]triazol-1-yl]-propoxy}-propionic Acid Methyl Ester]
activation at 1 µM [1, 4]: 4 ± 4.1% | activation at 1 µM [1, 5]: 4%

O=P(O)(O)CCN1CCC(Nc2cc(N3CCOCC3)nc(NCc3cn(CCCCO)nn3)n2)CC1 [CN021, {2-[4-(2-{[1-(4-Hydroxy-butyl)-1H-[1,2,3]triazol-4-ylmethyl]-amino}-6-morpholin-4-yl-pyrimidin-4-ylamino)-piperidin-1-yl]-ethyl}-phosphonic Acid Hydrobromide Salt]
activation at 1 µM [1, 6]: 8 to 11% | activation at 1 µM [1, 5]: 11%

O=P(O)(O)CCN1CCC(Nc2cc(N3CCS(=O)(=O)CC3)nc(NCc3cn(CCCO)nn3)n2)CC1 [CN024, {2-[4-(6-(1,1-Dioxo-1l6-thiomorpholin-4-yl)-2-{[1-(3-hydroxy-propyl)-1H-[1,2,3]triazol-4-ylmethyl]-amino}-pyrimidin-4-ylamino)-piperidin-1-yl]-ethyl}-phosphonic Acid Hydrobromide Salt]
activation at 1 µM [1, 6]: 7 ± 0.84% | activation at 1 µM [1, 5]: 7%

O=C(CCNC(=O)C1(O)CC(O)C(O)C(O)C1)N1CCC(Nc2cc(N3CCOCC3)nc(NCc3cn(CCCNCCO)nn3)n2)CC1 (stereo not drawn) [CN007, 1,3,4,5-Tetrahydroxy-cyclohexanecarboxylic Acid (3-{4-[2-({1-[3-(2-Hydroxy-ethylamino)-propyl]-1H-[1,2,3]triazol-4-ylmethyl}-amino)-6-morpholin-4-yl-pyrimidin-4-ylamino]-piperidin-1-yl}-3-oxo-propyl)-amide Hydrochloride Salt]
activation at 1 µM [1, 4]: 7 ± 1.05% | activation at 1 µM [1, 5]: 7%

O=C(CCc1ccccc1)NNc1cc(N2CCCCC2)nc(N2CCCCC2)n1 [CSV0A062711]
activity at 0.01 µM [2]: 36 ± 0.5% | activity at 1 µM [2]: 28 ± 3% | activity at 0.01 µM [3]: 80 ± 11% | activity at 1 µM [3]: 79 ± 6%

Cc1ccccc1C(=O)NNc1cc(N2CCOCC2)nc(N2CCOCC2)n1 [CSV0A062712]
activity at 0.01 µM [2, 7]: 52 ± 7% | activity at 1 µM [2, 8]: 51 ± 2% | activity at 0.01 µM [3, 7]: 67 ± 10% | activity at 1 µM [3, 8]: 63 ± 6%
